Molecular target: T1, human FFAR1 (GPR40) (Homo sapiens, UniProt O14842)
T1 construct: Flag; expressed in transfected cells; host or cells: HEK293T
Experiment: NFAT-RE-based reporter gene activity assay (Dual-Glo luciferase) for GPR40 agonistic activity in co-transfected HEK293T cells
Format: cell-based
Details: 4-hour treatment; for Efficacy (%): class symbols
Outline: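 Agonism read as NFAT-RE-driven firefly luciferase over Renilla control (Dual-Glo) after 4 h compound exposure, top concentration 1 µM, 10 half-log steps.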

T1 sequence (O14842 whole entry): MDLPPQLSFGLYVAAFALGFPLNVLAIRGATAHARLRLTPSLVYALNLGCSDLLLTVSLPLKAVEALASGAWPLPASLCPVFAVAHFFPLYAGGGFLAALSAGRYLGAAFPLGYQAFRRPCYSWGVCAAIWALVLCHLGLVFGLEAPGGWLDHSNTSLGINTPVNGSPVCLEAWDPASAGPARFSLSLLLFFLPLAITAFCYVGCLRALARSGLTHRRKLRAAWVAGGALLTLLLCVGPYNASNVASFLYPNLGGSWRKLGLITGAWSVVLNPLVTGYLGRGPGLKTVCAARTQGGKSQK

Compound | EC50 | Efficacy (%)
CC(C)(C)c1cccc(-c2c(C3CCN(c4ccc(F)cc4)CC3)oc3cc(C(CC(=O)O)C4CC4)ccc23)c1 (stereo not shown) [Compound 7] | 100 to 500 nM | †† (150 ≥ Efficacy (%) > 100)
COc1cccc(N2CCC(c3oc4cc([C@@H](CC(=O)O)C5CC5)ccc4c3C(=O)Nc3cc(C)ccc3C)CC2)c1 [Compound 269] | 10 to 100 nM | ††† (Efficacy (%) > 150)
COc1ccc(F)c(N2CCC(c3oc4cc(C(C5CC5)C(C)(C)C(=O)O)ccc4c3-c3ccc(C(C)(C)C)cc3)CC2)c1 (stereo not shown) [Compound 222] | 100 to 500 nM | ††† (Efficacy (%) > 150)
COc1cccc(N2CCC(c3oc4cc(C(CC(=O)O)C5CC5)ccc4c3-c3cnn(C)c3)CC2)c1 (stereo not shown) [Compound 36] | 100 to 500 nM | †† (150 ≥ Efficacy (%) > 100)
COc1ccc(F)c(N2CCC(c3oc4cc(C(CC(=O)O)C5CC5)ccc4c3CCC(C)(C)O)CC2)c1 (stereo not shown) [Compound 390] | 100 to 500 nM | †† (150 ≥ Efficacy (%) > 100)
COc1cccc(N2CCC(c3oc4cc(C(CC(=O)O)C5CC5)ccc4c3C(=O)NC34CC5CC(C)(CC(C)(C5)C3)C4)CC2)c1 (stereo not shown) [Compound 351] | 10 to 100 nM | †† (150 ≥ Efficacy (%) > 100)
COc1cccc(N2CCC(c3oc4cc([C@@H](CC(=O)O)C5CC5)ccc4c3C(C)OC)CC2)c1 (stereo partly shown) [Compound 406] | 100 to 500 nM | ††† (Efficacy (%) > 150)
COc1cccc(N2CCC(c3oc4cc(C(CC(=O)O)C5CC5)ccc4c3C(=O)Nc3c(F)cccc3F)CC2)c1 (stereo not shown) [Compound 256] | 100 to 500 nM | ††† (Efficacy (%) > 150)
COc1ccc(F)c(N2CCC(c3oc4cc(C(CC(=O)O)C5CC5)ccc4c3/C=C/C(C)(C)O)CC2)c1 (stereo not shown) [Compound 368] | 100 to 500 nM | ††† (Efficacy (%) > 150)
COc1cccc(N2CCC(c3oc4cc([C@H](C5CC5)C(F)C(=O)O)ccc4c3-c3cnn(C(C)(C)C)c3)CC2)c1 (stereo partly shown) [Compound 54] | 10 to 100 nM | †† (150 ≥ Efficacy (%) > 100)
CCc1ccc(Cl)c(NC(=O)c2c(C3CCN(c4ccc5c(c4)OCO5)CC3)oc3cc([C@@H](CC(=O)O)C4CC4)ccc23)c1 [Compound 337] | ≤ 10 nM | †† (150 ≥ Efficacy (%) > 100)
COc1ccc(Cl)c(N2CCC(c3oc4cc(C(CC(=O)O)C5CC5)ccc4c3-c3cnn(C(C)(C)C)c3)CC2)c1 (stereo not shown) [Compound 90] | 100 to 500 nM | † (100 ≥ Efficacy (%) > 50)
COc1ccc(-c2c(C3CCN(c4cc(OC)ccc4F)CC3)oc3cc([C@@H](CC(=O)O)C4CC4)ccc23)cc1 [Compound 179] | 100 to 500 nM | ††† (Efficacy (%) > 150)
COc1cccc(N2CCC(c3oc4cc(C(CC(=O)O)C5CC5)ccc4c3-c3cnn(C(C)(C)C)c3)CC2)c1Cl (stereo not shown) [Compound 88] | 100 to 500 nM | †† (150 ≥ Efficacy (%) > 100)
COc1ccc(F)c(N2CCC(c3oc4cc(C(CC(=O)O)C5CC5)ccc4c3C(=O)NC3CC3)CC2)c1 (stereo not shown) [Compound 308] | > 500 nM | †† (150 ≥ Efficacy (%) > 100)
COc1cccc(N2CCC(c3oc4cc([C@@H](CC(=O)O)C5CC5)ccc4c3-c3ccc4c(c3)C3(CCCCC3)c3ccccc3-4)CC2)c1 [Compound 81] | 100 to 500 nM | † (100 ≥ Efficacy (%) > 50)
COc1cccc(N2CCC(c3oc4cc([C@@H](CC(=O)O)C5CC5)ccc4c3-c3csc(C(C)(C)C)n3)CC2)c1 [Compound 108] | 10 to 100 nM | ††† (Efficacy (%) > 150)
COc1cccc(N2CCC(c3oc4cc(C(CC(=O)O)C5CC5)ccc4c3-c3nnc(C(C)(C)CN4CCCCC4)o3)CC2)c1 (stereo not shown) [Compound 137] | 10 to 100 nM | ††† (Efficacy (%) > 150)

Compound | EC50 | Efficacy (%)
COc1cccc(N2CCC(c3oc4cc([C@@H](CC(=O)O)C5CC5)ccc4c3-c3cc(C)ccn3)CC2)c1 [Compound 146] | 100 to 500 nM | ††† (Efficacy (%) > 150)
CSc1cccc(N2CCC(c3oc4cc(C(CC(=O)O)C5CC5)ccc4c3-c3cccc(C(C)(C)C)c3)CC2)c1 (stereo not shown) [Compound 31] | 100 to 500 nM | †† (150 ≥ Efficacy (%) > 100)
COc1ccc(F)c(N2CCC(c3oc4cc(C(CC(=O)O)C5CC5)ccc4c3CCOC(C)C)CC2)c1 (stereo not shown) [Compound 393] | 100 to 500 nM | †† (150 ≥ Efficacy (%) > 100)
COc1cccc(N2CCC(c3oc4cc(C(CC(=O)O)C5CC5)ccc4c3/C=C/C3CC3)CC2)c1 (stereo not shown) [Compound 364] | 100 to 500 nM | †† (150 ≥ Efficacy (%) > 100)
COc1ccc(C#N)c(N2CCC(c3oc4cc(C(CC(=O)O)C5CC5)ccc4c3-c3cnn(C(C)(C)C)c3)CC2)c1 (stereo not shown) [Compound 44] | 100 to 500 nM | †† (150 ≥ Efficacy (%) > 100)
CCCCC(C)c1c(C2CCN(c3cccc(OC)c3)CC2)oc2cc([C@@H](CC(=O)O)C3CC3)ccc12 (stereo partly shown) [Compound 384] | 100 to 500 nM | †† (150 ≥ Efficacy (%) > 100)
CC(C)(C)n1cc(-c2c(C3CCN(c4ccc5c(c4)OC(F)(F)O5)CC3)oc3cc([C@@H](CC(=O)O)C4CC4)ccc23)cn1 [Compound 96] | 100 to 500 nM | ††† (Efficacy (%) > 150)
COc1cccc(N2CCC(c3oc4cc(C(CC(=O)O)C5CC5)ccc4c3-c3cnn(C(C)(C)C(=O)N(C)C)c3)CC2)c1 (stereo not shown) [Compound 53] | 100 to 500 nM | †† (150 ≥ Efficacy (%) > 100)
COc1cccc(N2CCC(c3oc4cc([C@@H](CC(=O)O)C5CC5)ccc4c3C(C)OCCC(C)(C)C)CC2)c1 (stereo partly shown) [Compound 412] | 100 to 500 nM | ††† (Efficacy (%) > 150)
COc1cccc(N2CCC(c3oc4cc(C(CC(=O)O)C5CC5)ccc4c3C(=O)Nc3ccc(C)cc3F)CC2)c1 (stereo not shown) [Compound 251] | 100 to 500 nM | †† (150 ≥ Efficacy (%) > 100)
COc1ccc(F)c(N2CCC(c3oc4cc(C(CC(=O)O)C5CC5)ccc4c3-c3ccc(C(=O)N(C)CC(C)(C)C)cc3)CC2)c1 (stereo not shown) [Compound 202] | 100 to 500 nM | †† (150 ≥ Efficacy (%) > 100)
COc1ccc(F)c(N2CCC(c3oc4cc([C@@H](CC(=O)O)C5CC5)ccc4c3-c3cccc(C)c3)CC2)c1 [Compound 158] | 100 to 500 nM | †† (150 ≥ Efficacy (%) > 100)
COc1cccc(N2CCC(c3oc4cc([C@@H](CC(=O)O)C5CC5)ccc4c3C(=O)Nc3cc(C)ccc3OC)CC2)c1 [Compound 272] | 10 to 100 nM | ††† (Efficacy (%) > 150)
COc1cccc(N2CCC(c3oc4cc(C(CCO)C5CC5)ccc4c3-c3cnn(C(C)(C)C)c3)CC2)c1 (stereo not shown) [Compound 56] | 100 to 500 nM | † (100 ≥ Efficacy (%) > 50)
CCC(Cc1ccc2c(-c3cnn(C(C)(C)C)c3)c(C3CCN(c4cccc(OC)c4)CC3)oc2c1)C(=O)O (stereo not shown) [Compound 61] | 100 to 500 nM | †† (150 ≥ Efficacy (%) > 100)
O=C(O)C[C@H](c1ccc2c(C(=O)Nc3cc(C(F)(F)F)ccc3Cl)c(C3CCN(c4ccc5c(c4)OCO5)CC3)oc2c1)C1CC1 [Compound 335] | ≤ 10 nM | †† (150 ≥ Efficacy (%) > 100)
COc1ccc(F)c(N2CCC(c3oc4cc(C(CC(=O)O)C5CC5)ccc4c3-c3ccc(SC)cc3)CC2)c1 (stereo not shown) [Compound 181] | 100 to 500 nM | †† (150 ≥ Efficacy (%) > 100)
